Data: patent US7153837B2, “Agent for protection of retinal neurons” (Ortho-McNeil Pharmaceutical Inc., priority 2001, dated 2006)

Columns and labels:
[1] = test system: ischemia-induced retinal damage; test: ischemia-induced retinal damage in rat (ischemia-reperfusion, retinal histology); format: in vivo
From the text: (2) Topiramate's Action on Ischemia-Induced Retinal Damage in Rat:
Anesthesia was indued in rat with 3% halothane, and, then, anesthesia was maintained with 1% halothane (halothane was vaporized with 0.5 l oxygen/min. and 1.5 l dinitrogen monoxider/min.). Next, mydriasis was caused in right eye with atropine, and, then, 30 G injection needle which was connected with a vessel of physiological saline for instillation via a tube hung from the ceiling was stuck into anterior chamber, and, thus, a 130 mmHg hydraulic pressure was given, and ischemia was thereby induced After 45 minutes, the injection needle was removed, and retinal blood flow was allowed to make reperfusion. Administration was conducted by intraperitoneal injection into rats with physiological saline (solvent) and topiramate (200 mg/kg body weight) dissolved (partially suspended) in solvent, respectively. The administration was carried out twice respectively, i.e., two hours before and immediately after inschemia. Seven days after the administration, eyeball was taken out, immobilized overnight in 2% paraformaldehyde-2.5% glutaraldehyde, subjected to paraffin embedding, and was sectioned, and, thus, retinal slices (with a thickness of 3 μm) stained with hematoxylin-eosin (HE) were prepared. From eight slices which had been cut with an interval of 60 μm per one eyeball so that optic nerve head might be covered, three slices were optionally selected. With regard to thus selected three slices, there was taken a photograph of retina in the range of 1 to 1.5 mm on the left or right side from optic nerve head, and, thus, the number of cells in ganglion cell layer (GCL) in retina and the thickness of inner plaxiform layer (IPL) were measured. The group to which solvent had been administered and ischemia had been induced and the group to which topiramate dissolved in solvent had been administered and ischemia had been induced are respectively called “Solvent-administered group” and “Topiramate-administered group”. […]

[2] = test system: cultured retinal neurons of rat fetus; test: glutamate-induced death of cultured retinal neurons of rat fetus (trypan blue exclusion); format: cell-based; conditions: for Survival rate of cultured retinal neurons (%): 10 min, then 1 h drug-free, untreated 67, glutamate alone 46
Description: (1) Topiramate's Action on the Glutamate-Induced Death of Cultured Retinal Neurons of Rat Fetus: From rat fetuses (aged 17 to 19 days), retinal cells were taken out and isolated, and were cultured on a polyethylene-imine-coated plastic-covered slip in a 10% bovine fetal serum-containing Eagle's basal medium for seven days. From the eighth day, they were cultured in a 10% equine serum-containing Eagle's basal medium. On the sixth day of culture, cytosine arabinoside (10 μM) was added to inhibit the proliferation of non-neuronal cells. Next, the cells were incubated (37° C., 5% CO2.95% air) for 10 minutes in a medium which had been prepared by adding glutamate (1 mM) and topiramate in various concentrations (10 nM˜100 μM) to serum-free Eagle's basal medium. Then, cells were returned to serum-free Eagle's basal medium which contained neither glutamate nor topiramate, and were incubated (37° C., 5% CO2.95% air) for one hour, and, thereafter, toxicity was determined by trypan blue exclusion method. In detail, cells were immobilized with 10% neutral formalin solution, and were washed with physiological saline. Then, cells were dyed by adding trypan blue solution, and, thus, the number of cells was counted by phase-contrast microscope. Cells which had been dyed with trypan blue were regarded as dead, and non-dyed cells as surviving, and, thus, the survival rate of cultured cells was found from the proportion of the number of surviving cells to the number of total cells counted (at least 200). The group to which 1 mM of glutamate had been added and the group to which both 1 mM of glutamate and topiramate in various concentrations had been added are respectively called “Single 1 mM glutamate added group” and “1 mM glutamate+topiramate (various concentrations) added group”. Results concerning these groups were compared with the corresponding measured values of “Untreated group”, i.e., a group which had received no treatments. The values in the table are average values.

## CC1(C)O[C@@H]2[C@@H](CO[C@@]3(COS(N)(=O)=O)OC(C)(C)O[C@@H]23)O1 [topiramate, 2,3:4,5-bis-O-(1-methylethylidene)-β-D-fructopyranose sulfamate]
[1]; 200 mg/kg intraperitoneal twice (2 h before and immediately after 45 min ischemia), 7 days after, normal 49, solvent 21
  Thickness of IPL (μm): 30 μm
[1]; 200 mg/kg intraperitoneal twice (2 h before and immediately after 45 min ischemia), 7 days after, normal 68, solvent 36
  Number of cells in GCL (number/mm): 44 number/mm
[1]; 200 mg/kg intraperitoneal, summary of Table 2
  effect on decrease of number of cells in ganglion cell layer and thinning of inner plexiform layer: excellent in effectively preventing both the decrease of number of cells in ganglion cell layer and the thinning of inner plexiform layer
[2]; 1 mM glutamate + 10 nM topiramate
  Survival rate of cultured retinal neurons (%): 50%
[2]; 1 mM glutamate + 100 nM topiramate
  Survival rate of cultured retinal neurons (%): 58%
[2]; 1 mM glutamate + 1 μM topiramate
  Survival rate of cultured retinal neurons (%): 60%
[2]; 1 mM glutamate + 10 μM topiramate
  Survival rate of cultured retinal neurons (%): 64%
[2]; 1 mM glutamate + 100 μM topiramate
  Survival rate of cultured retinal neurons (%): 65%
[2]; 1 mM glutamate, topiramate 10 nM-100 μM, summary of Table 1
  effect on death (apoptosis) of cultured retinal neurons: remarkably inhibit the death (apoptosis) of cultured retinal neurons in a concentration-dependent manner
